For one assay, the target named is T1, cyclooxygenase (COX) (Ovis aries, UniProt P05979).
T1 construct: purchased Cayman 700200
T1 sequence (P05979 25-600): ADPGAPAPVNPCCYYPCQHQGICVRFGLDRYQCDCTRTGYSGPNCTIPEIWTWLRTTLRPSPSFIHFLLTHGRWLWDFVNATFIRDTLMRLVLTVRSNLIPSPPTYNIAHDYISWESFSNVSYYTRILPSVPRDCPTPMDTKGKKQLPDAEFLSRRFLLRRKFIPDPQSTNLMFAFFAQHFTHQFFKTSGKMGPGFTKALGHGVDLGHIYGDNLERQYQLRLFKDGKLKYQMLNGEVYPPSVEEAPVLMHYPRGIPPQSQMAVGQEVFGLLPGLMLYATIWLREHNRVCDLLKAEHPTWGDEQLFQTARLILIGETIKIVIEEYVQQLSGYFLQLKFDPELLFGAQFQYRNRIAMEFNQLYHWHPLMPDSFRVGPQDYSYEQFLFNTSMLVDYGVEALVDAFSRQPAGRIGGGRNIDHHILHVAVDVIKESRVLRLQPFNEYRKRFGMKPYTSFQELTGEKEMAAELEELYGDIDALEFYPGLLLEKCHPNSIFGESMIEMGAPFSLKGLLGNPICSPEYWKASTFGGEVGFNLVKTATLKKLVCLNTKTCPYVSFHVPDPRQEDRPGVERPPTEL
In words: Cyclooxygenase inhibitory assay (fluorescence COX activity kit). The assay is classed as biochemical. The conditions noted are these: purified COX preparation, 50 µM, positive control.

The test system of assay [1] is p65 NF-κB nuclear translocation in HaCaT cells. In words: TNFα-induced p65 NF-κB nuclear translocation, immunofluorescence. The format is cell-based. Conditions: positive control (betamethasone-17-valerate 10 µg/mL), then 10 ng/mL TNFα 1 h. As to the method: HaCaT cells were cultured with Dulbecco’s modified Eagle’s medium High Glucose (Lonza, Milan, Italy) supplemented with 10% FBS, 100 U/mL penicillin, 100 μg/mL streptomycin and 2 mM L-glutamine as previously described. Cells were maintained in a humidified incubator at 37 °C with 5% CO2 and incubated until the monolayer was 80% confluent. Medium was changed every 2 days.
HaCaT cells were pretreated with or without 10 μM of both SCA and SCB for 24 h. Stock solutions of the two compounds were prepared in DMSO immediately before use and diluted to the final concentration in the culture medium. In some sets of experiments, betamethasone-17-valerate (10 µg/mL) served as a positive control; dimethyl sulfoxide (DMSO) served as a solvent control. After the pretreatments, cells were stimulated with 10 ng/mL TNFα for 1 h to induce the NFκB signaling pathway. Then, media were replaced with fresh culture medium. Cells and supernatants were collected at different time points for each set of experiments as described below.
Briefly, HaCaT cells were seeded on coverslips at a density of 1 × 10^5 cell/mL and incubated with DMEM high glucose supplemented with FBS 10%. Then, HaCaT cells were treated as indicated above. At the end of the proinflammatory stimulus with TNFα, cells were fixed in 4% paraformaldehyde in PBS for 30 min at 4 °C as previously described. HaCaT cells were permeabilized for 5 min at RT with PBS containing 0.2% Triton X-100. After the blocking with 1% BSA in PBS at RT for 1 h, HaCaT cells were incubated with p65 NF-κB primary antibody (1:100, sc-372; Santa Cruz Biotechnology, Inc., Dallas, Texas, USA) in PBS containing 0.5% BSA at 4 °C overnight. After washing, coverslips were incubated with appropriate secondary antibody for 1 h at RT. Nuclei were stained with 1 μg/mL DAPI (Sigma- Aldrich, Italy) for 1 min. […] Fluorescence was examined using an Epifluorescence microscope (Nikon Eclipse E800; Nikon Corporation, Surrey, UK) equipped with a plan apochromat 100 × 0.5 − 1.3 oil immersion objective and a mercury lamp source.

The nature of assay [2]: Photochemiluminescence (PCL-ACL) antioxidant assay. Conditions: 0.1 mg/mL; Trolox equivalents per g of sample. On the procedure:
Photochemiluminescence assay, based on the methodology of Popov and Lewin [35], was performed to measure the antioxidant activity of cortisone, SCA and SCB compounds against superoxide anion radicals generated from luminol, a photosensitizer, when exposed to UV light at λmax = 351 nm. The antioxidant activity of compounds was measured using ACL kits (Analytic Jena, Jena, Germany) with a Photochem apparatus (Analytic Jena, Jena, Germany). In the PCL-ACL assay, the photochemical generation of free radicals is combined with the sensitive detection using chemiluminescence. In ACL studies, the kinetic light emission curve was monitored for 3 min and expressed as mM Trolox equivalents. The areas under the curves were calculated using the PCL soft control and analysis software. […] The observed inhibition of the signal was plotted against the concentration of Trolox added to the assay medium. The concentration of the added sample was such that the generated luminescence during the 3 min sampling interval fell within the limits of the standard curve. For ACL assay, 2.3 mL of reagent 1 (solvent and dilution reagent, methanol), 0.2 mL of reagent 2 (buffer solution), 25 μL of reagent 3 (photosensitizer: luminol 1 mmol L^−1), and 10 μL of standard or sample solution were mixed and measured. Luminol is used as a photosensitizer and as a detecting substance for free radicals. Trolox were used for the standard calibration curve from […].

Three molecules from publication PMC9685055, “Biological activity of new bioactive steroids deriving from biotransformation of cortisone” (Microbial Cell Factories, 2022) can be followed below.

Protocol for cyclooxygenase (COX): Cyclooxygenase (COX) activity assay was determined by using a fluorescence COX activity assay kit (Cayman, No. 700200) for detecting COX-1 and COX-2 activity in purified enzyme and tissue homogenate preparations. The assay was conducted by monitoring the appearance of fluorescent compound resofurin in accordance to the supplier recommendation. Aspirin (acetylsalicylic acid; 50 µM) served as positive control. The test compounds were dissolved in 1–2% DMSO (v/v) at 4 different concentrations (0.1, 1, 10 and 100 µM) and added to a purified COX preparation. A 1–2% DMSO solution was added to control plates. The plates were shaken for a few seconds and incubated for 5 min at 25 °C. The fluorescence was measured by using an excitation wavelength of 540 nm and an emission wavelength of 590 nm. Average fluorescent values were calculated for all the samples (n = 3/group) in order to determine the percentage of inhibition in respect to control (i.e. untreated) plates.

For `CC(=O)Oc1ccccc1C(=O)O` [aspirin, acetylsalicylic acid, reference compound], the “effect on COX activity” value at cyclooxygenase (COX) is recorded as “strongly inhibited”.

`C[C@H]1C[C@H]2[C@@H]3CCC4=CC(=O)C=C[C@]4(C)[C@@]3(F)[C@@H](O)C[C@]2(C)[C@@]1(O)C(=O)CO` [betamethasone, reference compound]: the “effect on TNFα-mediated p65 activation” value in assay [1] was “only partly prevented”.

In the case of `C[C@]12CCC(=O)C=C1CC[C@@H]1[C@@H]2C(=O)C[C@@]2(C)[C@H]1CC[C@]2(O)C(=O)CO` [cortisone], the “antioxidant capacity, PCL-ACL assay” value in assay [2] worked out at 0.13 µmol/g.
